Results as given in patent US20230286919A1, “ISOQUINOLINE DERIVATIVES FOR USE IN THERAPY” (Vestlandets Innovasjonsselskap AS, priority 2020, published 2023).

How the values were obtained:
[1] = target: PRKCD (PKC delta) (Homo sapiens, UniProt Q05655); assay: SelectScreen kinase profiling, PRKCD; type: biochemical; details: read-out: Enzyme inhibitory activity IC50
[2] = target: JAK2 (Homo sapiens, UniProt O60674); assay: SelectScreen kinase profiling, JAK2; type: biochemical; details: read-out: Enzyme inhibitory activity IC50
[3] = target: FRAP1 (mTOR) (Homo sapiens, UniProt P42345); assay: SelectScreen biochemical kinase profiling, FRAP1 (mTOR); details: cell free, read-out: Enzyme inhibitory activity IC50
Description: (§1) The in vitro kinase inhibitory assays in the presence of compounds 323-1 and 323-2 were carried out according to the Z′-LYTE™ Screening and LanthaScreen Eu Kinase Binding Assays Experimental Procedures in Invitrogen (ThermoFisher Scientific, Waltham, Mass., USA). For the Z′-LYTE™ Screening profiling for FRAP1 (mTOR), JAK3, and LTK (TYK1), a mixture containing the test compounds in 100% DMSO, 2.4 μL Kinase buffer (50 mM HEPES pH 7.5, 0.01% BRIJ-35, 10 mM MgCl2, 1 mM EGTA), 5 μL 2× Peptide/Kinase Mixture, 2.5 μL 4×ATP Solution were added into black 384-well low volume NBS and bar-coded corning plate (Corning Cat. #4514) and shake the plate for 30 seconds. After incubation at RT for 60 min, 5 μL Development Reagent Solution was added into plate and shake the plate for 30 seconds, followed by Development Reaction incubation at RT for 60 min. Read on fluorescence plate reader and analyze the data. […]
(§2) Inhibition by compounds 323-1 and 323-2 of MAP2K4 (MEK4) and TGFBR1 (ALK5) was determined by […]. Inhibition by compounds 323-1 and 323-2 of FRAP1 (mTOR), JAK3, and LTK (TYK1) was determined by […] using the Adapta Universal Kinase Assay (Life Technologies). […]

[4] = target: MAP2K4 (MEK4) (Homo sapiens, UniProt P45985); assay: SelectScreen kinase profiling, MAP2K4 (MEK4); type: binding; details: cell free, read-out: Enzyme inhibitory activity IC50
Sequence of MAP2K4 (MEK4) (P45985 whole entry): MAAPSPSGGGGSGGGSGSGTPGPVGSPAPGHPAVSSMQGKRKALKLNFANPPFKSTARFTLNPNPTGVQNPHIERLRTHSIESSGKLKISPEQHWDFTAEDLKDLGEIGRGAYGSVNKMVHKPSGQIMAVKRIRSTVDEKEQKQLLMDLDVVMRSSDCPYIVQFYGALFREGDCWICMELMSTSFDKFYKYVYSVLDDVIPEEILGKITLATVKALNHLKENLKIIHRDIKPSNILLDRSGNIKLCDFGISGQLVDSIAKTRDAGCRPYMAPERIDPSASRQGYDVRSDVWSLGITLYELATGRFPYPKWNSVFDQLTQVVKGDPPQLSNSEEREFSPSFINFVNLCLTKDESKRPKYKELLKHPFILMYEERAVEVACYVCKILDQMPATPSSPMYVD
Description: as §1, §2

[5] = target: HCK (Homo sapiens, UniProt P08631); assay: SelectScreen kinase profiling, HCK; type: biochemical; details: read-out: Enzyme inhibitory activity IC50
[6] = target: TGFBR1 (ALK5) (Homo sapiens, UniProt P36897); assay: SelectScreen kinase profiling, TGFBR1 (ALK5); type: binding; details: cell free, read-out: Enzyme inhibitory activity IC50
Description: as §1, §2

[7] = target: LTK (TYK1) (Homo sapiens, UniProt P29376); assay: SelectScreen biochemical kinase profiling, LTK (TYK1); details: cell free, read-out: Enzyme inhibitory activity IC50
Sequence of LTK (TYK1) (P29376 17-864): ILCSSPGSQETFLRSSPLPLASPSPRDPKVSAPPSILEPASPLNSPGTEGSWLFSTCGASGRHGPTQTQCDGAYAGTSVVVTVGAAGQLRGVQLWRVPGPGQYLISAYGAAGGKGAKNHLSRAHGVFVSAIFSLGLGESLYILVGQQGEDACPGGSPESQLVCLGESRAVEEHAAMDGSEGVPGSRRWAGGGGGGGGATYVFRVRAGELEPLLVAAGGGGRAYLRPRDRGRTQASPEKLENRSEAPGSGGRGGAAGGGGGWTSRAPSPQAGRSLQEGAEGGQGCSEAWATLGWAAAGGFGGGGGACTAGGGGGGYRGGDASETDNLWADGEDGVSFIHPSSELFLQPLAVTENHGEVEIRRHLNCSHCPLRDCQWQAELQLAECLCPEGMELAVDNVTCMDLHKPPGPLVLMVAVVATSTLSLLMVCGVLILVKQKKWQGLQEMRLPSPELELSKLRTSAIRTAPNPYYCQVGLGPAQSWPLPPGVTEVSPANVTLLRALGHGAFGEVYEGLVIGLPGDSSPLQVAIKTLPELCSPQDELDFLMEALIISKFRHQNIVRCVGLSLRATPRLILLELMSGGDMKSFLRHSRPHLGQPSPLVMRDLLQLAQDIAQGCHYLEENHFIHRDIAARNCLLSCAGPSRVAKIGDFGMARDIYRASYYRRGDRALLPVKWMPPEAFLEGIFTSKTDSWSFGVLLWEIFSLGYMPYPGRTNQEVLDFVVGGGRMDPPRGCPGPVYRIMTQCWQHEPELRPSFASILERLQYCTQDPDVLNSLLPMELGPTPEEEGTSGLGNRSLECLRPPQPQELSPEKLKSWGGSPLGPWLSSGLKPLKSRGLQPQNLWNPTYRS
Description: as §1, §2

[8] = target: FGFR2 (Homo sapiens, UniProt P21802); assay: SelectScreen kinase profiling, FGFR2; type: biochemical; details: read-out: Enzyme inhibitory activity IC50
Sequence of FGFR2 (P21802 22-821): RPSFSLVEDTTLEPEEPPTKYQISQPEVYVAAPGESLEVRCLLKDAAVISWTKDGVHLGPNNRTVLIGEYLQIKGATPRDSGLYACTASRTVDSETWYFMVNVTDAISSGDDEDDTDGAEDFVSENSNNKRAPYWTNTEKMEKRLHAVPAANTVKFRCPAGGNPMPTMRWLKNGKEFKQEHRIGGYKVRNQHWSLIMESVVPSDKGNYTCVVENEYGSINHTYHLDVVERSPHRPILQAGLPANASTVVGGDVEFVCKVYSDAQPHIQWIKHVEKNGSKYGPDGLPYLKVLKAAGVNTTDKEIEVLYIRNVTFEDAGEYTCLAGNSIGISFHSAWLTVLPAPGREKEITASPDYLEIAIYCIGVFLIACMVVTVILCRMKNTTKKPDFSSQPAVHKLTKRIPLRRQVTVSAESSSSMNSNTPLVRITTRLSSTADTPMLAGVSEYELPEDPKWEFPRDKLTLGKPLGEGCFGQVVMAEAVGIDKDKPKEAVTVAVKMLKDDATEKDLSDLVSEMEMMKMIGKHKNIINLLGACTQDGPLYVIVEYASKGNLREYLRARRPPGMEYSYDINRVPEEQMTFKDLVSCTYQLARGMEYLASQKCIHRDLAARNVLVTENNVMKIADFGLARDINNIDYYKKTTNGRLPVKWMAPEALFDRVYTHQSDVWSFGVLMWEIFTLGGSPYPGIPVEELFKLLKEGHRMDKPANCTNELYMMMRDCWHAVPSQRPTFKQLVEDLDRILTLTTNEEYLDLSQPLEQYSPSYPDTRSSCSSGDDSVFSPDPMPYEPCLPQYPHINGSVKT

[9] = target: JAK3 (Homo sapiens, UniProt P52333); assay: SelectScreen biochemical kinase profiling, JAK3; details: JAK3, cell free; read-out: Enzyme inhibitory activity IC50
Description: as §1, §2

[10] = target: FGFR4 (Homo sapiens, UniProt P22455); assay: SelectScreen kinase profiling, FGFR4; type: biochemical; details: read-out: Enzyme inhibitory activity IC50
[11] = target: LYN A (Homo sapiens, UniProt P07948); assay: SelectScreen kinase profiling, LYN A; type: biochemical; details: read-out: Enzyme inhibitory activity IC50
[12] = target: TYK2 (Homo sapiens, UniProt P29597); assay: SelectScreen kinase profiling, TYK2; type: biochemical; details: read-out: Enzyme inhibitory activity IC50
[13] = target: LYN B (Homo sapiens, UniProt P07948); assay: SelectScreen kinase profiling, LYN B; type: biochemical; details: read-out: Enzyme inhibitory activity IC50
[14] = target: AKT1 (PKB alpha) (Homo sapiens, UniProt P31749); assay: SelectScreen kinase profiling, AKT1; type: biochemical; details: read-out: Enzyme inhibitory activity IC50
[15] = target: PDGFRB (PDGFR beta) (Homo sapiens, UniProt P09619); assay: SelectScreen kinase profiling, PDGFRB; type: biochemical; details: read-out: Enzyme inhibitory activity IC50
[16] = target: KDR (VEGFR2) (Homo sapiens, UniProt P35968); assay: SelectScreen kinase profiling, KDR; type: biochemical; details: read-out: Enzyme inhibitory activity IC50
Sequence of KDR (VEGFR2) (P35968 20-1356): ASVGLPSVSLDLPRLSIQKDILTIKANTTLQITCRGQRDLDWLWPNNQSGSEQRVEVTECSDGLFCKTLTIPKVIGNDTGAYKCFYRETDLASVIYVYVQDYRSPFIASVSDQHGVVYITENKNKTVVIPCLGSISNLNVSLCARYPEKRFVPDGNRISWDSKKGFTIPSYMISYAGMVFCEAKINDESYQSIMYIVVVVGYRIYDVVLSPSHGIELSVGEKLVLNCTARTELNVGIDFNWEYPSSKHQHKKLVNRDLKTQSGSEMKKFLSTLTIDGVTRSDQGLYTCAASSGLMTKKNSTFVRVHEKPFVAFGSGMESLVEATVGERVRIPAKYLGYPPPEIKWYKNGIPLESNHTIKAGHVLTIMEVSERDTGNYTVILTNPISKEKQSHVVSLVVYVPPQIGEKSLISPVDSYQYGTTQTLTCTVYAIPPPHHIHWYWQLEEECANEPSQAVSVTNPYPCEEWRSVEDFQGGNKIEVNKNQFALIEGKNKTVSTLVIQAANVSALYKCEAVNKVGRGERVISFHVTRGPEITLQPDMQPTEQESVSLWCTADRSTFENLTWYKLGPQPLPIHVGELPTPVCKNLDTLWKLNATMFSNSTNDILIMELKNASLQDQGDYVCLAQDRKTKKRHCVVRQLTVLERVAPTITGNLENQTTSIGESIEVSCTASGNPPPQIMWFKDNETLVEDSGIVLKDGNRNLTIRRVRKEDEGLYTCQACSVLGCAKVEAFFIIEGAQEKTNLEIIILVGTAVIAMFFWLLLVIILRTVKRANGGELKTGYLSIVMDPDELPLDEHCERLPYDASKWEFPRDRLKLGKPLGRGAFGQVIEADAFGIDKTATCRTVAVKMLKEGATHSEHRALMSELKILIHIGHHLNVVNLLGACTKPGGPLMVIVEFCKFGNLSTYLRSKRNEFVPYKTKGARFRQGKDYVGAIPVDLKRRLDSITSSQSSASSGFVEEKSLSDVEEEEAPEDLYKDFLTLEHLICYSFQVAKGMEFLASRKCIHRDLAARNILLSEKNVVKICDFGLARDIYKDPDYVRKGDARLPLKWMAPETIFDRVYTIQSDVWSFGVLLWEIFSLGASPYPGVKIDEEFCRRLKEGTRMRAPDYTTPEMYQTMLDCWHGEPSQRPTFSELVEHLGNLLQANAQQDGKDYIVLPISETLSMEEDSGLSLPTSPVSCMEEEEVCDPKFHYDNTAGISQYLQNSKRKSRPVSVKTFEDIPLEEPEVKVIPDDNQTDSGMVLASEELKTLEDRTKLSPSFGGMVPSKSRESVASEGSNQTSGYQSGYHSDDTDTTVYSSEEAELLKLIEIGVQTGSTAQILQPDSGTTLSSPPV

[17] = target: MAPK8 (JNK1) (Homo sapiens, UniProt P45983); assay: SelectScreen kinase profiling, MAPK8; type: biochemical; details: read-out: Enzyme inhibitory activity IC50
[18] = target: EGFR (ErbB1) (Homo sapiens, UniProt P00533); assay: SelectScreen kinase profiling, EGFR; type: biochemical; details: read-out: Enzyme inhibitory activity IC50
[19] = target: MET (cMet) (Homo sapiens, UniProt P08581); assay: SelectScreen kinase profiling, MET; type: biochemical; details: read-out: Enzyme inhibitory activity IC50
[20] = target: MAPK1 (ERK2) (Homo sapiens, UniProt P28482); assay: SelectScreen kinase profiling, MAPK1; type: biochemical; details: read-out: Enzyme inhibitory activity IC50
Sequence of MAPK1 (ERK2) (P28482 whole entry): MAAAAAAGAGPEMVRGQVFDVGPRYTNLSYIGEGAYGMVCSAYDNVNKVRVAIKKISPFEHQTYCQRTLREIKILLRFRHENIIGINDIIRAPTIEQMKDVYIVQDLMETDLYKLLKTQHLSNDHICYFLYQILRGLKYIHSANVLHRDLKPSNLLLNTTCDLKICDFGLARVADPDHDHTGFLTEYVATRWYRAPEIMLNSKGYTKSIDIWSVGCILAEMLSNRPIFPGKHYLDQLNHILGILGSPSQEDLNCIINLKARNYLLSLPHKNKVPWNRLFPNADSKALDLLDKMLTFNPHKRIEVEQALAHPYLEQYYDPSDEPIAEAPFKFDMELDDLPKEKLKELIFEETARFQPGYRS

[21] = target: MAPK10 (JNK3) (Homo sapiens, UniProt P53779); assay: SelectScreen kinase profiling, MAPK10; type: biochemical; details: read-out: Enzyme inhibitory activity IC50
[22] = target: FGFR1 (Homo sapiens, UniProt P11362); assay: SelectScreen kinase profiling, FGFR1; type: biochemical; details: read-out: Enzyme inhibitory activity IC50
[23] = target: FGFR3 (Homo sapiens, UniProt P22607); assay: SelectScreen kinase profiling, FGFR3; type: biochemical; details: read-out: Enzyme inhibitory activity IC50
[24] = target: TGFBR2 (Homo sapiens, UniProt P37173); assay: SelectScreen kinase profiling, TGFBR2; type: biochemical; details: read-out: Enzyme inhibitory activity IC50
[25] = target: ERBB4 (HER4) (Homo sapiens, UniProt Q15303); assay: SelectScreen kinase profiling, ERBB4; type: biochemical; details: read-out: Enzyme inhibitory activity IC50
[26] = target: MAPK9 (JNK2) (Homo sapiens, UniProt P45984); assay: SelectScreen kinase profiling, MAPK9; type: biochemical; details: read-out: Enzyme inhibitory activity IC50
[27] = target: FLT1 (VEGFR1) (Homo sapiens, UniProt P17948); assay: SelectScreen kinase profiling, FLT1; type: biochemical; details: read-out: Enzyme inhibitory activity IC50
Sequence of FLT1 (VEGFR1) (P17948 27-1338): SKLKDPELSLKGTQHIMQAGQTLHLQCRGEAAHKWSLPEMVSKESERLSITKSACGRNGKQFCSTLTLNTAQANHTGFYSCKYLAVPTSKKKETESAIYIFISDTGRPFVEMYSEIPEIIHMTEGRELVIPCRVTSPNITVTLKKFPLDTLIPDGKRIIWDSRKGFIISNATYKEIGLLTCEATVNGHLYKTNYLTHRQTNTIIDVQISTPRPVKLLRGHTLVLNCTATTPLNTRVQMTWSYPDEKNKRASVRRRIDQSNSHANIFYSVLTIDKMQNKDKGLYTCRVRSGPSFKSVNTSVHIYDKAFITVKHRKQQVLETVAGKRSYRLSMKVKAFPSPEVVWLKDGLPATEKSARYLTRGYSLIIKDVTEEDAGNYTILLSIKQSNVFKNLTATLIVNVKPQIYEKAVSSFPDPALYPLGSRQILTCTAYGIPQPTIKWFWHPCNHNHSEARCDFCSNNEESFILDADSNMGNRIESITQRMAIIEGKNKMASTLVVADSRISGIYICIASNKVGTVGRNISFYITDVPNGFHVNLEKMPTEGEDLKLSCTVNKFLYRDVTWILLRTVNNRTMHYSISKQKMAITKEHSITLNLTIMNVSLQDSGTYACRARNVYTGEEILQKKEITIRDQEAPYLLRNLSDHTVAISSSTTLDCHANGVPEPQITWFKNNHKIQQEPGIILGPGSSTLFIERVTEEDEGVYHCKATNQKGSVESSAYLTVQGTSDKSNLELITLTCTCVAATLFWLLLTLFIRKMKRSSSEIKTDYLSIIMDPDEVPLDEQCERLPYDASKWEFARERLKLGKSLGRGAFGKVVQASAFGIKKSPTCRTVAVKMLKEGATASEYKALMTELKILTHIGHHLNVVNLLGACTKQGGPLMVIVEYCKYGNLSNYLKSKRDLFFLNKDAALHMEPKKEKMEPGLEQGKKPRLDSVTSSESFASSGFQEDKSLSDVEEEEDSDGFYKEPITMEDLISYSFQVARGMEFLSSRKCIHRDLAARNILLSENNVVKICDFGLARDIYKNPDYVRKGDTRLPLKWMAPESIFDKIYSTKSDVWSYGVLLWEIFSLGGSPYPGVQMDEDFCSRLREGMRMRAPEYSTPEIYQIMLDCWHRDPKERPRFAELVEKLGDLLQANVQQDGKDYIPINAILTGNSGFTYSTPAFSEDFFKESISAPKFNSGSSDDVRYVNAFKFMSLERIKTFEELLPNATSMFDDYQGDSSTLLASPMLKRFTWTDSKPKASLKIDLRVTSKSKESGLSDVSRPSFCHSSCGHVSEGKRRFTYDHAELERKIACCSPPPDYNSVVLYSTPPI

[28] = target: FLT4 (VEGFR3) (Homo sapiens, UniProt P35916); assay: SelectScreen kinase profiling, FLT4; type: biochemical; details: read-out: Enzyme inhibitory activity IC50
[29] = target: SRC N1 (Homo sapiens, UniProt P12931); assay: SelectScreen kinase profiling, SRC N1; type: biochemical; details: read-out: Enzyme inhibitory activity IC50
[30] = target: ERBB2 (HER2) (Homo sapiens, UniProt P04626); assay: SelectScreen kinase profiling, ERBB2; type: biochemical; details: read-out: Enzyme inhibitory activity IC50

| SMILES | IC50 [1] [µM] | IC50 [2] [µM] | IC50 [3] [µM] | IC50 [4] [µM] | IC50 [5] [µM] | IC50 [6] [µM] | IC50 [7] [µM] | IC50 [8] [µM] | IC50 [9] [µM] | IC50 [10] [µM] | IC50 [11] [µM] | IC50 [12] [µM] | IC50 [13] [µM] | IC50 [14] [µM] | IC50 [15] [µM] | IC50 [16] [µM] | IC50 [17] [µM] | IC50 [18] [µM] | IC50 [19] [µM] | IC50 [20] [µM] | further results |
| --- | --- | --- | --- | --- | --- | --- | --- | --- | --- | --- | --- | --- | --- | --- | --- | --- | --- | --- | --- | --- | --- |
| C[C@@H]1CCC(c2cc3c4c(cncc4c2)[C@H](C)C3)=C1C=O [323-1, (15R,2R)-Delavatine A] | > 20 | > 20 | 6.13 | 2.01 | > 20 | 7.95 | 6.22 | > 20 | 4.26 | > 20 | > 20 | > 20 | > 20 | > 20 | > 20 | > 20 | > 20 | > 20 | > 20 | > 20 | IC50 [21]: > 20 µM; IC50 [22]: > 20 µM; IC50 [23]: > 20 µM; IC50 [24]: > 20 µM; IC50 [25]: > 20 µM; IC50 [26]: > 20 µM; IC50 [27]: > 20 µM; IC50 [28]: > 20 µM; IC50 [29]: > 20 µM; IC50 [30]: > 20 µM |
| C[C@@H]1CCC(c2cc3c4c(cncc4c2)[C@@H](C)C3)=C1C=O [323-2, (15S,2R)-Delavatine A] | > 20 | > 20 | 7.52 | 1.22 | > 20 | 9.25 | 5.25 | > 20 | 11.6 | > 20 | > 20 | > 20 | > 20 | > 20 | > 20 | > 20 | > 20 | > 20 | > 20 | > 20 | IC50 [21]: > 20 µM; IC50 [22]: > 20 µM; IC50 [23]: > 20 µM; IC50 [24]: > 20 µM; IC50 [25]: > 20 µM; IC50 [26]: > 20 µM; IC50 [27]: > 20 µM; IC50 [28]: > 20 µM; IC50 [29]: > 20 µM; IC50 [30]: > 20 µM |
